Experimental data taken from ChEMBL document CHEMBL5120979, “Oral Nonpeptidic, Noncovalent Triazine Coronavirus Main Protease Inhibitors for Treating COVID-19” (ACS Med Chem Lett, 2022).

How the values were obtained:
SARS-CoV-2 = test: Antiviral activity against SARS-CoV-2 infected in African green monkey VeroE6 cells expressing TMPRSS2; format: functional, organism-based; settings: Severe acute respiratory syndrome coronavirus 2, Vero C1008
[1] = biological target: Replicase polyprotein 1ab (Severe acute respiratory syndrome coronavirus 2, UniProt P0DTD1); test: Inhibition of recombinant SARS-CoV-2 main protease usingDABCYLKTSAVLQSGFRKME(EDANS)-NH2 fluorogenic peptide substrate by FRET assay

Compound | EC50 (SARS-CoV-2) [nM] | IC50 [1] [nM]
Cn1cnc(Cn2c(=O)nc(Nc3cc4cn(C)nc4cc3Cl)n(Cc3cc(F)c(F)c(F)c3)c2=O)c1 | 1030 | 6
Cn1cnc(Cn2c(=O)nc(NC3=CC4CCOC4C=C3Cl)n(Cc3cc(F)c(F)c(F)c3)c2=O)n1 (stereo not given) | 385 | 15
Cc1cncc(-n2c(=O)nc(Nc3cc4cn(C)nc4cc3Cl)n(Cc3cc(F)c(F)c(F)c3)c2=O)c1 | 177 | 
Cn1cc2cc(Nc3nc(=O)n(-c4cncc(C(F)(F)F)c4)c(=O)n3Cc3cc(F)c(F)c(F)c3)c(Cl)cc2n1 | 6600 | 
Cn1cc2cc(Nc3nc(=O)n(Cc4cc(Cl)ccn4)c(=O)n3Cc3cc(F)c(F)cc3F)c(Cl)cc2n1 | 1520 | 
Cn1cnc(Cn2c(=O)nc(Nc3cc4cn(C)nc4cc3Cl)n(Cc3cc(F)c(F)c(F)c3F)c2=O)n1 | 395 | 10
CCn1cc2cc(Nc3nc(=O)n(Cc4ncn(C)n4)c(=O)n3Cc3cc(F)c(F)cc3F)c(Cl)cc2n1 | 533 | 
Cc1cncc(-n2c(=O)nc(Nc3cc4cn(C)nc4cc3Cl)n(Cc3cc(C#N)c(F)cc3C)c2=O)c1 | 35 | 2
Cc1cncc(-n2c(=O)nc(Nc3cc4cn(C)nc4cc3Cl)n(Cc3cc(F)c(F)cc3F)c2=O)c1 | 131 | 
Cn1cc2cc(Nc3nc(=O)n(Cc4cc5ccsc5[nH]c4=O)c(=O)n3Cc3cc(F)c(F)c(F)c3)c(Cl)cc2n1 | 321 | 4
Cn1cc2cc(Nc3nc(=O)n(-c4cncc5c4COC5)c(=O)n3Cc3cc(Cl)c(F)cc3F)c(Cl)cc2n1 | 680 | 
Cn1cnc(Cn2c(=O)nc(Nc3cc4cn(CC(F)F)nc4cc3Cl)n(Cc3cc(F)c(F)cc3F)c2=O)n1 | 342 | 9
CCNC(=O)Cn1c(=O)nc(Nc2cc3cn(C)nc3cc2Cl)n(Cc2cc(F)c(F)c(F)c2)c1=O | 11500 | 
Cn1cnc(Cn2c(=O)nc(Nc3cc4cn(C)nc4cc3Cl)n(Cc3cccc4ccccc34)c2=O)n1 | 22500 | 
Cn1cnc(Cn2c(=O)nc(Nc3cc4cn(C)nc4cc3Cl)n(Cc3cc(Cl)c(F)c(Cl)c3)c2=O)n1 | 750 | 5
Cn1cnc(Cn2c(=O)nc(Nc3cc4cn(C)nc4cc3Cl)n(Cc3cc(F)c(F)c(F)c3)c2=O)n1 | 450 | 
Cc1cnc(Cn2c(=O)nc(Nc3cc4cn(C)nc4cc3Cl)n(Cc3cc(F)c(F)cc3F)c2=O)nc1 | 5850 | 
Cn1cnc(Cn2c(=O)nc(Nc3cc4c(F)n(C)nc4cc3Cl)n(Cc3cc(F)c(F)cc3F)c2=O)n1 | 750 | 
